Measured values from PubChem BioAssay AID2060903 (Molecular Pharmacology Branch, DTP, NCI, 2025).
pIC50: −log10 of the molar value.

System: 377384-186-R-J1-PDC complex spheroid viability
Test: Anticancer human tumor 377384-186-R-J1-PDC patient-derived pancreatic carcinoma cell line growth inhibition [RAS]
Settings: for pIC50: curve of first compound; for viability, T/C: stronger effect = lower value; active = viability on the fitted dose curve at most 10% of control; inactive = the rest
How it was run: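 Multi-cell-type spheroids: tumor cells plus HUVEC endothelial cells and mesenchymal stem cells. RAS-pathway inhibitors were combined with targeted agents, each dosed in half-log steps down from clinical Cmax, or from 10 microM when Cmax was unknown.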

[1] = second compound 0.000949 µM, first compound 0.0316 µM
[2] = second compound 0.000949 µM, first compound 0.1 µM
[3] = second compound 0.000949 µM, first compound 0.316 µM
[4] = second compound 0.000949 µM, first compound 1 µM
[5] = second compound 0.003 µM, first compound 0.0316 µM
[6] = second compound 0.003 µM, first compound 0.1 µM
[7] = second compound 0.003 µM, first compound 0.316 µM
[8] = second compound 0.003 µM, first compound 1 µM
[9] = second compound 0.00949 µM, first compound 0.0316 µM
[10] = second compound 0.00949 µM, first compound 0.1 µM
[11] = second compound 0.00949 µM, first compound 0.316 µM
[12] = second compound 0.00949 µM, first compound 1 µM
[13] = second compound 0.03 µM, first compound 0.0316 µM
[14] = second compound 0.03 µM, first compound 0.1 µM
[15] = second compound 0.03 µM, first compound 0.316 µM
[16] = second compound 0.03 µM, first compound 1 µM
[17] = second compound 0.0949 µM, first compound 0.0316 µM
[18] = second compound 0.0949 µM, first compound 0.1 µM
[19] = second compound 0.0949 µM, first compound 0.316 µM
[20] = second compound 0.0949 µM, first compound 1 µM
[21] = second compound 0.3 µM, first compound 0.0316 µM
[22] = second compound 0.3 µM, first compound 0.1 µM
[23] = second compound 0.3 µM, first compound 0.316 µM
[24] = second compound 0.3 µM, first compound 1 µM
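Also: spheroids exposed to compounds for seven days before readout.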

CC(=O)OC12COC1CC(O)C1(C)C(=O)C(O)C3=C(C)C(OC(=O)C(O)C(NC(=O)OC(C)(C)C)c4ccccc4)CC(O)(C(OC(=O)c4ccccc4)C21)C3(C)C (stereo unspecified) + CCn1c(-c2cc(N3CCN(C)CC3)cnc2C(C)OC)c2c3cc(ccc31)-c1csc(n1)CC(NC(=O)C1CC1C)C(=O)N1CCCC(N1)C(=O)OCC(C)(C)C2
active: viability, T/C [1] 3.43% | viability, T/C [2] 4.27% | viability, T/C [3] 3.99% | viability, T/C [4] 4.95% | viability, T/C (second compound 0.000949 µM, first compound 3.16 µM) 5.23% | viability, T/C (second compound 0.000949 µM, first compound 10 µM) 5.38% | viability, T/C [5] 2.96% | viability, T/C [6] 1.47% | viability, T/C [7] 2.97% | viability, T/C [8] 2.21% | viability, T/C (second compound 0.003 µM, first compound 3.16 µM) 2.97% | viability, T/C (second compound 0.003 µM, first compound 10 µM) 2.38% | viability, T/C [9] 1.88% | viability, T/C [10] 2.6% | viability, T/C [11] 2% | viability, T/C [12] 2.25% | viability, T/C (second compound 0.00949 µM, first compound 3.16 µM) 2.05% | viability, T/C (second compound 0.00949 µM, first compound 10 µM) 2.33% | viability, T/C [13] 1.57% | viability, T/C [14] 1.84% | viability, T/C [15] 1.46% | viability, T/C [16] 1.65% | viability, T/C (second compound 0.03 µM, first compound 3.16 µM) 2.16% | viability, T/C (second compound 0.03 µM, first compound 10 µM) 1.64% | viability, T/C [17] 1.97% | viability, T/C [18] 1.63% | viability, T/C [19] 1.57% | viability, T/C [20] 1.56% | viability, T/C (second compound 0.0949 µM, first compound 3.16 µM) 1.78% | viability, T/C (second compound 0.0949 µM, first compound 10 µM) 1.2% | viability, T/C [21] 1.96% | viability, T/C [22] 1.22% | viability, T/C [23] 2.82% | viability, T/C [24] 1.84% | viability, T/C (second compound 0.3 µM, first compound 3.16 µM) 1.23% | viability, T/C (second compound 0.3 µM, first compound 10 µM) 1.25%
> 7.50: pIC50 (second compound 0.000949 µM) | pIC50 (second compound 0.003 µM) | pIC50 (second compound 0.00949 µM) | pIC50 (second compound 0.03 µM) | pIC50 (second compound 0.0949 µM) | pIC50 (second compound 0.3 µM)

CCc1c2c(nc3ccc(O)cc13)-c1cc3c(c(=O)n1C2)COC(=O)[C@]3(O)CC + CCn1c(-c2cc(N3CCN(C)CC3)cnc2C(C)OC)c2c3cc(ccc31)-c1csc(n1)CC(NC(=O)C1CC1C)C(=O)N1CCCC(N1)C(=O)OCC(C)(C)C2
active: viability, T/C (second compound 0.000949 µM, first compound 0.03 µM) 5.07% | viability, T/C (second compound 0.000949 µM, first compound 0.0949 µM) 2.53% | viability, T/C (second compound 0.000949 µM, first compound 0.3 µM) 1.79% | viability, T/C (second compound 0.003 µM, first compound 0.003 µM) 7.71% | viability, T/C (second compound 0.003 µM, first compound 0.00949 µM) 4.82% | viability, T/C (second compound 0.003 µM, first compound 0.03 µM) 3.05% | viability, T/C (second compound 0.003 µM, first compound 0.0949 µM) 2.03% | viability, T/C (second compound 0.003 µM, first compound 0.3 µM) 1.92% | viability, T/C (second compound 0.00949 µM, first compound 0.000949 µM) 4.34% | viability, T/C (second compound 0.00949 µM, first compound 0.003 µM) 3.24% | viability, T/C (second compound 0.00949 µM, first compound 0.00949 µM) 2.6% | viability, T/C (second compound 0.00949 µM, first compound 0.03 µM) 2.11% | viability, T/C (second compound 0.00949 µM, first compound 0.0949 µM) 2.15% | viability, T/C (second compound 0.00949 µM, first compound 0.3 µM) 1.25% | viability, T/C (second compound 0.03 µM, first compound 0.000949 µM) 2.43% | viability, T/C (second compound 0.03 µM, first compound 0.003 µM) 2.09% | viability, T/C (second compound 0.03 µM, first compound 0.00949 µM) 2.04% | viability, T/C (second compound 0.03 µM, first compound 0.03 µM) 2.06% | viability, T/C (second compound 0.03 µM, first compound 0.0949 µM) 1.98% | viability, T/C (second compound 0.03 µM, first compound 0.3 µM) 1.26% | viability, T/C (second compound 0.0949 µM, first compound 0.000949 µM) 1.98% | viability, T/C (second compound 0.0949 µM, first compound 0.003 µM) 1.94% | viability, T/C (second compound 0.0949 µM, first compound 0.00949 µM) 1.8% | viability, T/C (second compound 0.0949 µM, first compound 0.03 µM) 1.65% | viability, T/C (second compound 0.0949 µM, first compound 0.0949 µM) 1.4% | viability, T/C (second compound 0.0949 µM, first compound 0.3 µM) 0.95% | viability, T/C (second compound 0.3 µM, first compound 0.000949 µM) 1.39% | viability, T/C (second compound 0.3 µM, first compound 0.003 µM) 1.76% | viability, T/C (second compound 0.3 µM, first compound 0.00949 µM) 1.84% | viability, T/C (second compound 0.3 µM, first compound 0.03 µM) 1.68% | viability, T/C (second compound 0.3 µM, first compound 0.0949 µM) 1.29% | viability, T/C (second compound 0.3 µM, first compound 0.3 µM) 0.71%
inactive: viability, T/C (second compound 0.000949 µM, first compound 0.000949 µM) 33.1% | viability, T/C (second compound 0.000949 µM, first compound 0.003 µM) 21.3% | viability, T/C (second compound 0.000949 µM, first compound 0.00949 µM) 10.2% | viability, T/C (second compound 0.003 µM, first compound 0.000949 µM) 20.8%
> 9.02: pIC50 (second compound 0.000949 µM) | pIC50 (second compound 0.003 µM) | pIC50 (second compound 0.00949 µM) | pIC50 (second compound 0.03 µM) | pIC50 (second compound 0.0949 µM) | pIC50 (second compound 0.3 µM)

Nc1ccn(C2OC(CO)C(O)C2(F)F)c(=O)n1 (stereo unspecified) + CCn1c(-c2cc(N3CCN(C)CC3)cnc2C(C)OC)c2c3cc(ccc31)-c1csc(n1)CC(NC(=O)C1CC1C)C(=O)N1CCCC(N1)C(=O)OCC(C)(C)C2
> 8.50: pIC50 (second compound 0.000949 µM) | pIC50 (second compound 0.003 µM) | pIC50 (second compound 0.00949 µM) | pIC50 (second compound 0.03 µM) | pIC50 (second compound 0.0949 µM) | pIC50 (second compound 0.3 µM)
inactive: viability, T/C (second compound 0.000949 µM, first compound 0.00316 µM) 41.1% | viability, T/C (second compound 0.000949 µM, first compound 0.01 µM) 18.4% | viability, T/C (second compound 0.003 µM, first compound 0.00316 µM) 19%
active: viability, T/C [1] 4.12% | viability, T/C [2] 3.96% | viability, T/C [3] 3.39% | viability, T/C [4] 3.44% | viability, T/C (second compound 0.003 µM, first compound 0.01 µM) 8.01% | viability, T/C [5] 5.2% | viability, T/C [6] 2.62% | viability, T/C [7] 3.06% | viability, T/C [8] 2.55% | viability, T/C (second compound 0.00949 µM, first compound 0.00316 µM) 4.2% | viability, T/C (second compound 0.00949 µM, first compound 0.01 µM) 3.81% | viability, T/C [9] 3.02% | viability, T/C [10] 2.45% | viability, T/C [11] 2.8% | viability, T/C [12] 2.63% | viability, T/C (second compound 0.03 µM, first compound 0.00316 µM) 2.29% | viability, T/C (second compound 0.03 µM, first compound 0.01 µM) 3.33% | viability, T/C [13] 2.15% | viability, T/C [14] 2.11% | viability, T/C [15] 3.23% | viability, T/C [16] 2.21% | viability, T/C (second compound 0.0949 µM, first compound 0.00316 µM) 2.1% | viability, T/C (second compound 0.0949 µM, first compound 0.01 µM) 2.03% | viability, T/C [17] 1.97% | viability, T/C [18] 1.8% | viability, T/C [19] 1.92% | viability, T/C [20] 1.8% | viability, T/C (second compound 0.3 µM, first compound 0.00316 µM) 1.98% | viability, T/C (second compound 0.3 µM, first compound 0.01 µM) 2.16% | viability, T/C [21] 1.73% | viability, T/C [22] 1.47% | viability, T/C [23] 1.95% | viability, T/C [24] 2.17%
